The target of experiment [1] is T1, Neuronal acetylcholine receptor subunit alpha-7 (Rattus norvegicus, UniProt Q05941). The experiment in a line: Inhibition of [3H]-MLA binding to Nicotinic acetylcholine receptor alpha7 in rat brain. It is filed as tissue-based.
Experiment [2] deals with T1, Neuronal acetylcholine receptor subunit alpha-7. The experiment in a line: Inhibition of [3H]-MLA binding to Nicotinic acetylcholine receptor alpha-7 in rat brain. It counts as tissue-based.
In experiment [3] the target is T2, Neuronal acetylcholine receptor; alpha4/beta2 (Rattus norvegicus, UniProt P09483+P12390). The experiment in a line: Inhibition of [3H]nicotine binding to Nicotinic acetylcholine receptor alpha4-beta2 in rat brain. It counts as tissue-based.
For experiment [4], the target named is T2, Neuronal acetylcholine receptor; alpha4/beta2. The experiment in a line: Inhibitory activity against nAChR mediated nicotine-evoked [3H]DA overflow using rat striatal slices. It counts as functional.
Experiment [5] has the same target. The experiment in a line: Inhibition of [3H]nicotine binding to Nicotinic acetylcholine receptor alpha4-beta2 in rat brain. It is filed as tissue-based.
The species entered for a further experiment is Rattus norvegicus. Put plainly: Inhibitory activity against nAChR mediated nicotine-evoked [3H]DA overflow using rat striatal slices; Not active. It counts as functional, organism-based.

T2 sequence (P09483 whole entry): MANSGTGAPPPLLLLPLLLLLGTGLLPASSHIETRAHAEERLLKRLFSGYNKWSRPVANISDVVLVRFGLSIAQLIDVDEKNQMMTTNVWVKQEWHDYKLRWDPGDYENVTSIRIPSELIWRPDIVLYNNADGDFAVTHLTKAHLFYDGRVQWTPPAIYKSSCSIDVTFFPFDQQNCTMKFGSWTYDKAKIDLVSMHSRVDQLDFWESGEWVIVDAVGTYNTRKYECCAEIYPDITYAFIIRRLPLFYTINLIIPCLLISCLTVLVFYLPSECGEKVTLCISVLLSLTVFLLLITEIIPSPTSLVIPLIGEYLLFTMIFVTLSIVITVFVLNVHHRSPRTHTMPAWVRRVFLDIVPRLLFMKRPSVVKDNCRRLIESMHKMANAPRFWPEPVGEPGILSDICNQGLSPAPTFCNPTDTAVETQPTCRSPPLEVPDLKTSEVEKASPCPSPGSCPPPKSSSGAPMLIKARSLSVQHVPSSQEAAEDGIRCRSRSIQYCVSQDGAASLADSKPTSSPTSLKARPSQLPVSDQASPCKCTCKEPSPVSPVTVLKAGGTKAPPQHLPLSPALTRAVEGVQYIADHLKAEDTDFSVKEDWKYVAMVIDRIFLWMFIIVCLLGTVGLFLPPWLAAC
T2 sequence (P12390 whole entry): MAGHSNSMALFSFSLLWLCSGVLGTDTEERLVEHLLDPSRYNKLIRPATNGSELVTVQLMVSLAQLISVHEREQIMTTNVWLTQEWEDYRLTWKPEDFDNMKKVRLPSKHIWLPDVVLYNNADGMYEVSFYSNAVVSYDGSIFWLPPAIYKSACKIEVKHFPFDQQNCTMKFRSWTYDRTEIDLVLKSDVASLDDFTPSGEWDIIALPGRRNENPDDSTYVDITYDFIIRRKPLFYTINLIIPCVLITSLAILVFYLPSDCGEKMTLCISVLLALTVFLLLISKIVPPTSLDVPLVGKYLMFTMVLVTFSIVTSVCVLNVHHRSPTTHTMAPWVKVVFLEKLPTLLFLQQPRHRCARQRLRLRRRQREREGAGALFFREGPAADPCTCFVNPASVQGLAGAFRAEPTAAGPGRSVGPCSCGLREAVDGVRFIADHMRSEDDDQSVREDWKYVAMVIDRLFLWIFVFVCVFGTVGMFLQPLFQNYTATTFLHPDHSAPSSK
T1 sequence (Q05941 whole entry): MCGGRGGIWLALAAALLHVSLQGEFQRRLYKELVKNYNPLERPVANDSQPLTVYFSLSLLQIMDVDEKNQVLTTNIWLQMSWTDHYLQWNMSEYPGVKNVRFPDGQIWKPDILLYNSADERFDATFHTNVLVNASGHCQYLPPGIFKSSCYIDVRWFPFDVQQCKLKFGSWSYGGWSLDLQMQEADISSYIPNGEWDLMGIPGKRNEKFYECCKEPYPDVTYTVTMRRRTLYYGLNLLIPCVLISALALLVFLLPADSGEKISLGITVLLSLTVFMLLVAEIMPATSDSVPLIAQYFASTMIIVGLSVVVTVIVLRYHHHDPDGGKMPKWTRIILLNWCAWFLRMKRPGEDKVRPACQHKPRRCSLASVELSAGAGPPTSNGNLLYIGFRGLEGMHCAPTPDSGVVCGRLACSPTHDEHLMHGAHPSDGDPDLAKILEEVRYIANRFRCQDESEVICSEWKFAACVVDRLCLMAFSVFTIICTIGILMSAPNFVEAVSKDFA

As for `CCCCCCCC[n+]1cccc([C@@H]2CCCN2C)c1`, in experiment [1], the Ki was found to be 12000 nM.
As for `CCCCCCCCCCCC[n+]1ccc2c(c1)[C@H]1[C@@H](CC2)CCN1C.[I-]`, the Ki result in experiment [2] and in experiment [3] was “Not Active” each time. In experiment [4], this compound displayed an IC50 of 220 nM.
Take `CCCCCCCC[n+]1ccc2c(c1)[C@H]1[C@@H](CC2)CCN1C.[I-]`: the Ki result in experiment [2] and in experiment [3] was “Not Active” throughout. Besides, 80 nM corresponded to half-maximal inhibition in experiment [4] (IC50).
Regarding `CCCCCCCC[n+]1cccc2c1CC[C@@H]1CCN(C)[C@H]21.[I-]`, the Ki result in experiment [2] and in experiment [3] was “Not Active” throughout. The same compound had an IC50 in experiment [4] of 40 nM.
In the case of `CCCCCCCCCCC[n+]1cccc2c1CC[C@@H]1CCN(C)[C@H]21.[I-]`, the Ki result in experiment [2] and in experiment [3] was “Not Active” each time. Also, the IC50 in experiment [4] came to 40 nM.
Turning to `CCCCCCCCCC[n+]1cccc2c1CC[C@@H]1CCN(C)[C@H]21.[I-]`, the inhibitory constant (Ki) entry in experiment [2] and in experiment [3] was “Not Active” throughout. Also, the IC50 in experiment [4] was 30 nM.
Consider `CCCCCCCCC[n+]1ccc2c(c1)[C@H]1[C@@H](CC2)CCN1C.[I-]`, for which the Ki entry in experiment [2] and in experiment [3] was “Not Active” throughout. Also, it took 660 nM to reach half-maximal inhibition in experiment [4] (IC50).
On to `CCCCCCCCCCC[n+]1ccc2c(c1)[C@H]1[C@@H](CC2)CCN1C.[I-]`, for which the Ki entry in experiment [2] and in experiment [3] was “Not Active” throughout. This compound also registered an IC50 in experiment [4] of 40 nM.
For `CCCCCCCCCCCC[n+]1ccccc1.[I-]`, the Ki entry in experiment [2] and in experiment [3] was “Not Active” each time. In experiment [4], this compound came in with an IC50 of 260 nM.
For the compound `CCCCCCCCC[n+]1cccc2c1CC[C@@H]1CCN(C)[C@H]21.[I-]`, the Ki entry in experiment [2] and in experiment [3] was “Not Active” each time. Besides, the IC50 in experiment [4] came out at 310 nM.
`c1cc[n+](CCCCCCCCCCCCCC[n+]2ccccc2)cc1`: the Ki in experiment [1] stood at 33000 nM; in experiment [5], 9150 nM. The compound further had an IC50 in experiment [4] of 1000 nM.
Consider `CN1CCC[C@H]1c1ccc[n+](CCCCCCCCCCCCCC[n+]2cccc([C@@H]3CCCN3C)c2)c1.[Br-].[Br-]`, for which the Ki entry in experiment [2] is “Not Active”; in experiment [5] it was 1950 nM. The same compound returned an IC50 in experiment [4] of 170 nM.
Take `CCCCCCCCCCCCCCCCCCCC[n+]1ccccc1.[Br-]`: the Ki result in experiment [2] and in experiment [3] was “Not Active” each time. Moreover, in experiment [4], the IC50 is 120 nM.
With `CCCCCCCCCCCC[n+]1cccc2c1CC[C@@H]1CCN(C)[C@H]21.[I-]`, the Ki result in experiment [2] and in experiment [3] was “Not Active” in each case. For the same compound, in the experiment filed under Rattus norvegicus, the IC50 entry is reported as “Not Active”.
Regarding `CCCCCCCCCC[n+]1ccccc1.[I-]`, the Ki result in experiment [2] was “Not Active”; in experiment [5], 17000 nM. This compound came in with a concentration for half-maximal inhibition (IC50) in experiment [4] of 130 nM.
Regarding `CCCCCCCCCCCCCCC[n+]1ccccc1.[Br-]`, the Ki entry in experiment [2] is “Not Active”; in experiment [5] it was 38000 nM. The same compound gave a half-maximal inhibitory concentration (IC50) in experiment [4] of 320 nM.
For the compound `CCCCCCCCCCCC[n+]1cccc([C@@H]2CCCN2C)c1.[I-]`, the Ki result in experiment [2] was “Not Active”; in experiment [5], 140 nM. The compound further returned an IC50 in experiment [4] of 9 nM.
Take `CCCCCCCCCC[n+]1cccc([C@@H]2CCCN2C)c1.[I-]`: the Ki result in experiment [2] was “Not Active”; in experiment [5], 90 nM. The IC50 result in the experiment listed under Rattus norvegicus is “Not Active”.
For `CCCCCCCCCC[n+]1ccc2c(c1)[C@H]1[C@@H](CC2)CCN1C.[I-]`, the Ki entry in experiment [2] and in experiment [3] was “Not Active” each time. Also, half-maximal inhibition in experiment [4] (IC50) was put at 580 nM.

(Values after ChEMBL document CHEMBL1147512, “Development of subtype-selective ligands as antagonists at nicotinic receptors mediating nicotine-evoked dopamine release” (Bioorg Med Chem Lett, 2004).)
